Experimental data from patent US6500842B1, “8-hydroxy-7-substituted quinolines as anti-viral agents” (Pharmacia & Upjohn Company, priority 1996, dated 2002).
“And” between values parts separate entries of the source, which are not always exact repeats. Identical values can stand only once. Like-named read-outs stand apart in the source and are kept apart here.

Target: T1, HCMV polymerase (Human cytomegalovirus, UniProt P08546)
T1 construct: made in house; host or cells: recombinant baculovirus-infected SF-9 cells
Experiment: HCMV polymerase assay (scintillation proximity assay)
Assay type: biochemical
Method: The HCMV polymerase assay is performed using a scintillation proximity assay (SPA) as described in several references, such as N. D. Cook, et al., Pharmaceutical Manufacturing International, pages 49-53 (1992); K. Takeuchi, Laboratory Practice, September issue (1992); U.S. Pat. No. 4,568,649 (1986); which are incorporated by reference herein. Reactions are performed in 96-well plates. The assay is conducted in 100 μl volume with 5.4 mM HEPES (pH 7.5), 11.7 mM KCl, 4.5 mM MgCl2, 0.36 mg/ml BSA, and 90 nM ^3H-dTTP. Assays are run with and without CHAPS, (3-[(3-Cholamidopropyl)-dimethylammonio]-1-propane-sulfonate) at a final concentration of 2 mM. HCMV is diluted in enzyme dilution buffer containing 50% glycerol, 250 mM NaCl, 10 mM HEPES (pH 7.5), 100 pg/ml BSA, and 0.01% sodium azide. The HCMV polymerase, which is expressed in recombinant baculovirus-infected SF-9 cells and purified according to literature procedures, is added at 10% (or 10 μl) of the final reaction volume, i.e., 100 μl. Compounds are diluted in 50% DMSO and 10 μl are added to each well. Control wells contain an equivalent concentration of DMSO. Unless noted otherwise, reactions are initiated via the addition of 6 nM biotinylated poly(dA)-oligo(dT) template/primer to reaction mixtures containing the enzyme, substrate, and compounds of interest. Plates are incubated in a 25° C. of 37° C. H2O bath and terminated via the addition of 40 μl/reaction of 0.5 M EDTA (pH 8) per well. Reactions are terminated within the time-frame during which substrate incorporation is linear and varied depending upon the enzyme and conditions used, i.e., 30 min. for HCMV polymerase. Ten μl of streptavidin-SPA beads (20 mg/ml in PBS/10% glycerol) are added following termination of the reaction. Plates are incubated 10 min. at 37° C., then equilibrated to room temperature, and counted on a Packard Topcount. Linear regressions are performed and IC50's are calculated using computer software. Results of the testing of compounds of the present invention in this assay are shown in Tables 1, 2, 5, 9, 10, 11, 13 (except for the last compound which was tested under modified conditions) and 14 below.

[1] = Table 10, CMV pol Assay, read-out: IC50
[2] = Table 9, read-out: CMV pol Assay- IC50
[3] = pol type CMV, Table 2, read-out: IC50
[4] = Table 11, read-out: CMV pol Assay IC50
[5] = pol type CMV, Table 1, read-out: CMV pol Assay IC50

T1 sequence (P08546 whole entry): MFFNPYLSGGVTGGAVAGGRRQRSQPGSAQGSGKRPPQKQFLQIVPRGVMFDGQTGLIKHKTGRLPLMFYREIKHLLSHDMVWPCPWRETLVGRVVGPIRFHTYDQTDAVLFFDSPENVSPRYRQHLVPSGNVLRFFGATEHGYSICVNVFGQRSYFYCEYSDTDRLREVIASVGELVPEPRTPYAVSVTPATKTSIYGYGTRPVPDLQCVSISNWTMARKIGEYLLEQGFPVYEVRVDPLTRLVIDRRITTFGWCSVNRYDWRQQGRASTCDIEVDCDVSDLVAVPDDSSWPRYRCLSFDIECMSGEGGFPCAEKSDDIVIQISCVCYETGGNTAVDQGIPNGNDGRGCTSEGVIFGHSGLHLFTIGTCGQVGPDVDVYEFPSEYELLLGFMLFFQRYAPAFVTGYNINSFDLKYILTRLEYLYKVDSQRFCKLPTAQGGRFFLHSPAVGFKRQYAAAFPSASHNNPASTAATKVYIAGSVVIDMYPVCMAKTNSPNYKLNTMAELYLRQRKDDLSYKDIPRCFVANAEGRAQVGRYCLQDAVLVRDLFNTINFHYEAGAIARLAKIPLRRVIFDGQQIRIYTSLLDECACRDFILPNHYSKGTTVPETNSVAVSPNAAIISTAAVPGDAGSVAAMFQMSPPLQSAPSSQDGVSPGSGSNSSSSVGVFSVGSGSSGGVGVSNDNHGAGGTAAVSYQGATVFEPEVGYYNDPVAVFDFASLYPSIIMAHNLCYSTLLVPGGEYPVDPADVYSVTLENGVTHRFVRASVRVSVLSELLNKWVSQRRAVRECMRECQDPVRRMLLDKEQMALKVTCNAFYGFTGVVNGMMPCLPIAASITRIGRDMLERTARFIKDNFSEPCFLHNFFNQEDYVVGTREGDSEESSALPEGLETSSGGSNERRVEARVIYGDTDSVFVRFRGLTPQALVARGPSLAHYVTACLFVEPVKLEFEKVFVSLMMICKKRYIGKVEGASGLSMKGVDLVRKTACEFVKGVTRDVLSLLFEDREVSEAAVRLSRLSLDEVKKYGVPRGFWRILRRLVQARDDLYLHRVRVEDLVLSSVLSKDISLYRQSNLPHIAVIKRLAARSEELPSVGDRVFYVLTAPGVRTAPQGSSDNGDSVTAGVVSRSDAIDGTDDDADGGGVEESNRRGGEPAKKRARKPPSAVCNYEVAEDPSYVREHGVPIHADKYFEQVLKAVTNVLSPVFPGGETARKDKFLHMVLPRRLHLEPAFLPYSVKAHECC

Row | Structure (SMILES) | IC50 [1] [µM] | IC50 [2] | further results
1 | O=C(Nc1cc(Cl)ccc1O)c1ccc2cccnc2c1O | 13.8 |  | 
2 | O=C(Nc1ccc(F)cc1F)c1ccc2cccnc2c1O | 26.8 |  | 
3 | O=C(N[C@H](c1ccccc1)[C@@H](O)c1ccccc1)c1ccc2cccnc2c1O |  | 2.9 µM and 6.4 µM | 
4 | Cc1ccc2c(Cl)cc(S(=O)(=O)NCc3ccc(F)cc3)c(O)c2n1 [Example 30] |  |  | % Inhib (Conc 1.00e−004 M, Table 2): 97%; % Inhib (Conc 1.30e−005 M, Table 2): 73.4%; % Inhib (Conc 2.50e−005 M, Table 2): 87.5%; % Inhib (Conc 3.13e−006 M, Table 2): 42.6%; % Inhib (Conc 5.00e−005 M, Table 2): 95.4%; % Inhib (Conc 6.25e−006 M, Table 2): 59.9%; IC50 [3]: 4.3 µM
5 | O=C(Nc1ccccc1Br)c1ccc2cccnc2c1O | 16 |  | 
6 | O=C(NC1CCCc2ccccc21)c1ccc2cccnc2c1O (centres unmarked) |  | 7.6 µM | 
7 | CC(C)(C)OC(=O)[C@H](Cc1c[nH]c2ccccc12)Nc1nnc(NC(=O)c2ccc3cccnc3c2O)s1 |  |  | IC50 [4]: < 3.1 µM
8 | CCCCCCCCCCNC(=O)c1ccc2cccnc2c1O |  | 7.1 µM | 
9 | CSCC[C@H](Nc1nnc(NC(=O)c2ccc3cccnc3c2O)s1)C(=O)OC(C)(C)C |  |  | IC50 [4]: 26.6 µM
10 | Cc1ccc(NC(=O)c2ccc3cccnc3c2O)c(C)c1 [drawing 279] | 8.1 |  | 
11 | O=C(N[C@H](CO)Cc1ccc(O)cc1)c1ccc2cccnc2c1O |  | 3.1 µM | 
12 | Cc1cc(C)cc(NC(=O)c2ccc3cccnc3c2O)c1 | 19.2 |  | 
13 | O=C(Nc1cccc2ccccc12)c1ccc2cccnc2c1O | 4.9 |  | 
14 | O=C(Nc1ccc2c(C(F)(F)F)cc(=O)oc2c1)c1ccc2cccnc2c1O |  |  | IC50 (IC50 uM, Table 10, CMV pol Assay): 9.5 µM
15 | Cc1ccc(F)cc1NC(=O)c1ccc2cccnc2c1O [drawing 282] | 6.6 |  | 
16 | O=C(NCCC1=CCCCC1)c1ccc2cccnc2c1O |  | 21.1 µM | 
17 | CC(NC(=O)c1ccc2cccnc2c1O)c1ccc(Br)cc1 (centres unmarked) |  | 2.6 µM | 
18 | COC(=O)[C@H](Cc1ccccc1)Nc1nnc(NC(=O)c2ccc3cccnc3c2O)s1 |  |  | IC50 [4]: 15.4 µM
19 | O=C(Nc1ccc(S(=O)(=O)Nc2ccc3cn[nH]c3c2)cc1)c1ccc2cccnc2c1O | 2.4 |  | 
20 | O=C(Nc1ccc([N+](=O)[O-])cc1)c1ccc2cccnc2c1O | 48.4 |  | 
21 | CC1CCCC(NC(=O)c2ccc3cccnc3c2O)C1 (centres unmarked) |  | 20.6 µM | 
22 | O=C(Nc1ccc([N+](=O)[O-])cc1Cl)c1ccc2cccnc2c1O | 3.3 |  | 
23 | CC(C)(C)OC(=O)C(Nc1nnc(NC(=O)c2ccc3cccnc3c2O)s1)c1ccc2c(c1)OCO2 (centres unmarked) |  |  | IC50 [4]: 4.3 µM
24 | O=C(N[C@@H]1CC2CCC1C2)c1ccc2cccnc2c1O (some centres unmarked) |  | 19.2 µM | 
25 | CC(C)(C)C1CCC(NC(=O)c2ccc3cccnc3c2O)CC1 (centres unmarked) |  | 2.3 µM | 

Row | Structure (SMILES) | IC50 [1] [µM] | IC50 [2] | further results
26 | O=C(NCCSCc1c(F)cccc1Cl)c1ccc2cccnc2c1O |  | 9.6 µM | 
27 | O=C(NCc1ccc(F)c(Cl)c1)c1ccc2cccnc2c1O |  | 17.5 µM | 
28 | O=C(NCCSCc1c(Cl)cccc1Cl)c1ccc2cccnc2c1O |  | 8.4 µM | 
29 | O=C(Nc1ccc2ccccc2c1)c1ccc2cccnc2c1O | 15.5 |  | 
30 | Cc1ccc2ccc(C(=O)Nc3ccc(Cl)cc3)c(O)c2n1 |  |  | IC50 (Table 13, read-out: IC50): 7.6 µM
31 | O=C(NCc1cccs1)c1ccc2cccnc2c1O |  |  | IC50 (Table 14, read-out: IC50): 34 µM
32 | Cc1ccc2c(Cl)cc(S(=O)(=O)NCc3cccc4ccccc34)c(O)c2n1 [Example 31, 5-Chloro-8-hydroxy-2-methyl-N-(1-naphthalenylmethyl)-7-quinolinesulfonamide] |  |  | % Inhib (Conc 1.00e−004 M, Table 2): 97.3%; % Inhib (Conc 1.00e−005 M, Table 2): 88.2%; % Inhib (Conc 1.25e−006 M, Table 2): 22.7%; % Inhib (Conc 1.30e−005 M, Table 2): 97.3%; % Inhib (Conc 2.50e−005 M, Table 2): 97.8%; % Inhib (Conc 2.50e−006 M, Table 2): 38.5%; % Inhib (Conc 3.13e−006 M, Table 2): 82.9%; % Inhib (Conc 3.13e−007 M, Table 2): −7.9%; % Inhib (Conc 5.00e−005 M, Table 2): 97.8%; % Inhib (Conc 5.00e−006 M, Table 2): 55%; % Inhib (Conc 6.25e−006 M, Table 2): 95%; % Inhib (Conc 6.25e−007 M, Table 2): 20%; IC50 [3]: < 3.1 µM and 3.7 µM
33 | Cc1ccc(NC(=O)c2ccc3cccnc3c2O)c(C)c1 [drawing 223] | 22.4 |  | 
34 | O=C(Nc1cc(F)cc(F)c1)c1ccc2cccnc2c1O | 26.3 |  | 
35 | O=C(Nc1ccc(Oc2ccccc2)cc1)c1ccc2cccnc2c1O | 6.9 |  | 
36 | COC(=O)[C@@H](Cc1ccccc1)Nc1nnc(NC(=O)c2ccc3cccnc3c2O)s1 |  |  | IC50 [4]: 9.4 µM
37 | O=C(NC1C2CC3CC(C2)CC1C3)c1ccc2cccnc2c1O (centres unmarked) |  | 24.3 µM | 
38 | O=C(NCc1ccc(Cl)cc1)c1ccc2cccnc2c1O [Example 1, N-[(4-Chlorophenyl)methyl]-8-hydroxy-7-quinolinecarboxamide] |  |  | IC50 [5]: 10.2 µM
39 | O=C(NCCc1ccccc1F)c1ccc2cccnc2c1O |  |  | inhibition at 25 µM (Table 14): 39%
40 | O=C(NCC(c1ccccc1)c1ccccc1)c1ccc2cccnc2c1O |  | 0.9 µM | 
41 | O=C(NC1CCCCCCC1)c1ccc2cccnc2c1O |  | 7.6 µM | 
42 | O=C(NCc1cccc(C(F)(F)F)c1)c1ccc2cccnc2c1O |  | 8.5 µM | 
43 | O=C(Nc1cc([N+](=O)[O-])cc([N+](=O)[O-])c1)c1ccc2cccnc2c1O | 7.1 |  | 
44 | C[C@H](NC(=O)c1ccc2cccnc2c1O)[C@H](O)c1ccccc1 |  |  | IC50 (Table 14, read-out: IC50): 41 µM
45 | CCCc1ccc(NC(=O)c2ccc3cccnc3c2O)cc1 | 3.1 |  | 
46 | O=C(NCCc1cccc(Cl)c1)c1ccc2cccnc2c1O |  | 6.9 µM | 
47 | Cc1ccc(Cl)c(NC(=O)c2ccc3cccnc3c2O)c1 | 7.5 |  | 
48 | O=C(NCC1CCCCC1)c1ccc2cccnc2c1O |  | 24.2 µM | 
49 | COc1cc(CNC(=O)c2ccc3cccnc3c2O)ccc1O |  | 19.3 µM | 
50 | O=C(Nc1cc(C(F)(F)F)cc(C(F)(F)F)c1)c1ccc2cccnc2c1O | 68.2 |  | 

Row | Structure (SMILES) | IC50 [1] [µM] | IC50 [2] | further results
51 | N#Cc1c(F)c(F)c(NC(=O)c2ccc3cccnc3c2O)c(F)c1F | 18.5 |  | 
52 | O=C(NCc1ccc2c(c1)OCO2)c1ccc2cccnc2c1O |  |  | IC50 (Table 14, read-out: IC50): 26 µM
53 | O=C(NCCc1ccc(O)cc1)c1ccc2cccnc2c1O |  | 20.1 µM | 
54 | O=C(NCCCCc1ccccc1)c1ccc2cccnc2c1O |  | 7.4 µM | 
55 | O=C(N[C@H](CO)Cc1ccccc1)c1ccc2cccnc2c1O |  |  | inhibition at 25 µM (Table 14): 93%
56 | C[C@@H](NC(=O)c1ccc2cccnc2c1O)c1ccc(Br)cc1 |  | 4.6 µM | 
57 | COc1cc(Cl)c(C)cc1NC(=O)c1ccc2cccnc2c1O | 7.9 |  | 
58 | N#Cc1ccc(NC(=O)c2ccc3cccnc3c2O)cc1 [drawing 210] | > 100 |  | 
59 | CCCCCCC(C)NC(=O)c1ccc2cccnc2c1O (centres unmarked) |  | 1.7 µM | 
60 | O=C(Nc1nnc(NC(C(=O)O)c2cccc3c2OCO3)s1)c1ccc2cccnc2c1O (centres unmarked) |  |  | IC50 [4]: 18.9 µM
61 | CC(CNC(=O)c1ccc2cccnc2c1O)c1ccccc1 (centres unmarked) |  | 14.8 µM | 
62 | Cc1cc(O)c2ccc(C(=O)NCc3ccc(Cl)cc3)c(O)c2n1 |  |  | IC50 (Table 13, read-out: IC50): 102 µM
63 | O=C(NCc1cccc(Cl)c1)c1ccc2cccnc2c1O |  | 8.7 µM | 
64 | O=C(NCCc1ccccc1Cl)c1ccc2cccnc2c1O |  |  | IC50 (Table 14, read-out: IC50): 26 µM
65 | CC(C)C[C@H](Nc1nnc(NC(=O)c2ccc3cccnc3c2O)s1)C(=O)OC(C)(C)C |  |  | IC50 [4]: 11.4 µM
66 | O=C(NCc1cc(Cl)ccc1Cl)c1ccc2cccnc2c1O |  | 17 µM | 
67 | CC(C)(C)OC(=O)C[C@H](Nc1nnc(NC(=O)c2ccc3cccnc3c2O)s1)C(=O)OC(C)(C)C |  |  | IC50 [4]: 24.2 µM
68 | O=C(NC1=NC(=O)C(c2ccc(Cl)cc2)S1)c1cc(Br)c2cccnc2c1O (centres unmarked) [Example 6, 5-Bromo-N-[5-(4-chlorophenyl)-4,5-dihydro-4-oxo-2-thiazolyl]-8-hydroxy-7-quinolinecarboxamide] |  |  | IC50 [5]: 4.1 µM
69 | O=C(NCCCc1ccccc1)c1ccc2cccnc2c1O |  | 9.3 µM | 
70 | CCCCCC(C)NC(=O)c1ccc2cccnc2c1O (centres unmarked) |  | 7.9 µM | 
71 | O=C(Nc1cc(Br)ccc1Br)c1ccc2cccnc2c1O | 10.1 |  | 
72 | CC(C)(C)OC(=O)[C@H](Cc1ccc(O)cc1)Nc1nnc(NC(=O)c2ccc3cccnc3c2O)s1 |  |  | IC50 [4]: < 3.1 µM
73 | O=C(Nc1ccc(Br)cc1)c1ccc2cccnc2c1O | 29.7 |  | 
74 | Cc1cccc(NC(=O)c2ccc3cccnc3c2O)c1C | 8.6 |  | 
